For assay [1], the target named is T1, AfPGM (Aspergillus fumigatus, UniProt Q4WY53).
T1 construct: Full length AfPGM; 6His-GST (N, cleaved yes); made in house; host or cells: E. coli BL21 (DE3) pLysS
Put plainly: biochemical. On the procedure: (§1) The reaction mixture contained MOPS–NaOH (pH 7.4; 50 mM), MgSO4 (1.5 mM), NADP^+ (1 mM), G6PDH (0.01 U) from L. mesenteroides, Glc-1P (500 μM), Glc-1,6-2P (50 μM), and enzyme (5 nM). The reaction was carried out at 25 °C for 6 min in a total volume of 100 μl. Formation of NADPH was detected in real-time (every 1.5 min), measuring fluorescence signal (excitation at 360 nm; emission at 460 nm). To measure the inhibitory activity, compounds with different concentrations (3% (v/v) DMSO) were added to the reaction system. IC50 values were calculated using the product (NADPH) concentration at 6 min with 500 μM Glc-1P.
(§2) Figure S11: Representative enzyme activity assays for PGMs. Error bars represent standard deviation of three determinations. Panel A and B show the time course of PGMs and PGM mutants in which sugar recognition glutamates are mutated to glutamine. […] Values in parentheses indicate the time at which DTT (1 mM) was added.

Assay [2] concerns the target T2, AfPGMC353∗ (Aspergillus fumigatus, UniProt Q4WY53, C131S/C242S/C364S).
T2 construct: Full length AfPGM; 6His-GST (N, cleaved yes); made in house; host or cells: E. coli BL21 (DE3) pLysS
Put plainly: G6PDH coupled assay for PGM, AfPGMC353∗ variant (C353 the sole cysteine). Type of assay: biochemical. The following applies: IC50 AfPGMC353, AfPGMC353∗ (all other cysteines mutated to serine) 5 nM, no preincubation. As to the method:
as §1

A further assay concerns the target T3, HsPGM (Homo sapiens, UniProt P36871).
T3 construct: Full length HsPGM; 6His-GST (N, cleaved yes); made in house; host or cells: E. coli BL21 (DE3) pLysS (same protocol as AfPGM)
T3 sequence (P36871 1-562): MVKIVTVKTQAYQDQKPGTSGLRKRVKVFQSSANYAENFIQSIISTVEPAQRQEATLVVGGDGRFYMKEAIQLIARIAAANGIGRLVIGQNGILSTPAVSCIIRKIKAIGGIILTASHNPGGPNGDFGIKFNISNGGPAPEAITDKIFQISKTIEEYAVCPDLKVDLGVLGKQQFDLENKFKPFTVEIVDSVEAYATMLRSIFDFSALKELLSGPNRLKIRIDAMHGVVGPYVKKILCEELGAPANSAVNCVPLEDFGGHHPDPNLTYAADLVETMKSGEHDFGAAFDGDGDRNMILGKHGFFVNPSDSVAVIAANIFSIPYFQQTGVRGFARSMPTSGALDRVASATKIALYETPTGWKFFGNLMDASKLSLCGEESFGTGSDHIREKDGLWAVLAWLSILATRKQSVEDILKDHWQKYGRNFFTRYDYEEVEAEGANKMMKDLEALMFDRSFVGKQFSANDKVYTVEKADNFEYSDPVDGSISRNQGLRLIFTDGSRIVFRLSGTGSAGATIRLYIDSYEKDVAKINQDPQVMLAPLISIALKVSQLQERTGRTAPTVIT
Kind of assay: G6PDH coupled assay for PGM, HsPGM. Type of assay: biochemical. As to the method:
as §1, §2

A further assay deals with T4, CaPGM (Candida albicans, UniProt A0A1D8PSA9).
T4 sequence (A0A1D8PSA9 1-560): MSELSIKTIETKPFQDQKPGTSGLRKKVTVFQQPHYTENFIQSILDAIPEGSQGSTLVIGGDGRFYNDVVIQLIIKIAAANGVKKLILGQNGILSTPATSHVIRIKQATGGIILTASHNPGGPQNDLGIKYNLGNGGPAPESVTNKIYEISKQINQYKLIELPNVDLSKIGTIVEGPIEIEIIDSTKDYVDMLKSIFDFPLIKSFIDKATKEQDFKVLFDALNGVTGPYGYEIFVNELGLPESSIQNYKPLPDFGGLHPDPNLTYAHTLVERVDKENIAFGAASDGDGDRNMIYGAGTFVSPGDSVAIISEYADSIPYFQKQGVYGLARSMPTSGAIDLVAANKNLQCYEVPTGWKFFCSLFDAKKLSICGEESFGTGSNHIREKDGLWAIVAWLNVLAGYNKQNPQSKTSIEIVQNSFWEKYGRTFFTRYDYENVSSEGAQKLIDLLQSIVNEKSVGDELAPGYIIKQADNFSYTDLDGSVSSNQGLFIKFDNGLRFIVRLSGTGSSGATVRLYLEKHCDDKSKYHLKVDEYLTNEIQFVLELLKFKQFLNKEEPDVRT
Kind of assay: G6PDH coupled assay for PGM, WT CaPGM. Type of assay: biochemical. The following applies: 5 nM enzyme, no preincubation. On the procedure: as §1

The target of a further assay is T5, CaPGMC359S (Candida albicans, UniProt A0A1D8PSA9, C359S).
T5 sequence (A0A1D8PSA9 1-560 C359S): T4 sequence (A0A1D8PSA9 1-560)
Kind of assay: G6PDH coupled assay for PGM, CaPGM C359S mutant. In kind it is biochemical. The conditions noted are these: 5 nM enzyme, no preincubation. As to the method: as §1

Another assay concerns the target T6, AfPGMC353V (Aspergillus fumigatus, UniProt Q4WY53, C353V).
T6 construct: Full length AfPGM; 6His-GST (N, cleaved yes); made in house; host or cells: E. coli BL21 (DE3) pLysS
Kind of assay: G6PDH coupled assay for PGM, AfPGM C353V mutant. The following applies: 5 nM enzyme, no preincubation. Type of assay: biochemical. As to the method:
as §1

For the next assay, the system named is A. fumigatus. Kind of assay: Growth inhibition (MIC) of A. fumigatus. In kind it is cell-based. The following applies: Aspergillus fumigatus; preliminary experiments. An excerpt:
Figure S12: Limited correlation between minimal inhibitory concentrations (MIC) and IC50 values of isothiazolone derivatives against AfPGM. […] The R^2 value of linear correlation is 0.15.

The target of assay [3] is T1, AfPGM. Kind of assay: Biolayer interferometry fragment binding. The conditions noted are these: 0 to 500 µM. On the procedure:
Amino groups of lysine side chains in PGM were biotinylated (EZ-Link NHSPEG4-Biotin) with one-to-one stoichiometry (one adduct per protein molecule). Biotinylated protein molecules were loaded on streptavidin-immobilized sensors (Super Streptavidin Biosensor). BLI was carried out using an Octet Red 384 instrument (ForteBio). Screening cycles included the baseline phase (protein was incubated for 60 s in screening buffer [25 mM Hepes–NaOH (pH 7.5), 150 mM NaCl, 2% DMSO (v/v]), the association phase (protein was incubated for 60 s in wells containing 200 μM fragment compounds dissolved in the screening buffer), and the dissociation phase (protein was incubated for 60 s in the screening buffer without any fragment compounds). Sensors blocked by biocytin were utilized as a control. Fragment compounds were purchased from Maybridge (1000 fragment compounds). Fragment compounds whose signal values were higher than the median value plus three times robust SD were considered as hits. The confirmation of hits was carried out using dose-response assays. Briefly, a BLI assay was carried out with each hit in a series of concentrations (from 0 to 500 μM). Running cycles included the baseline phase (60 s in the screening buffer), the association phase (120 s in the screening buffer with fragment compounds), and the dissociation phase (120 s in the screening buffer without compounds). […]
On the technique in general: Biolayer interferometry detects binding as a change in optical thickness at a sensor tip.

Assay [4] has as its target T1, AfPGM. Put plainly: AfPGM enzyme kinetics in the presence of ISFP1 (G6PDH coupled assay). Type of assay: biochemical. On the procedure:
As previously described, two speculated mechanisms, perturbing substrate binding or phosphoryl transfer, have been proposed based on the complex structure of CaPGM-ISFP1. […] As such, the inhibitory mechanism is likely to be a consequence of slowing the rate of phosphoryl transfer.
as §1, §2

The target in assay [5] is T1, AfPGM. Put plainly: Covalent modification, intact protein mass spectrometry, AfPGM. Type of assay: binding. The conditions noted are these: AfPGM:ISFP1 1:20; one adduct per protein molecule; reversed by DTT. As to the method: (§3) PGM was dissolved to 20 μM in Hepes buffer (25 mM Hepes–NaOH (pH 7.5), 150 mM NaCl) and incubated with compound (protein:compound 1:20; 2% (v/v) DMSO) at 20 °C for 10 min (for AfPGM) or 4 °C overnight (for AfPGMC353∗). Excess compound molecules were removed using desalting column (CentriPure P2, Generon). PGM (20 μM) incubated with DMSO at the same condition was utilized as a control. The removal of isothiazolone adducts was carried out through the incubation with DTT (10 mM) at 20 °C for 10 min. DTT was removed using a desalting column (CentriPure P2, Generon). The ring-opened isothiazolone protein modification was confirmed using intact protein mass spectrometry.

Assay [6] concerns the target T2, AfPGMC353∗. Kind of assay: Covalent modification, intact protein mass spectrometry, AfPGMC353∗. In kind it is binding. The conditions noted are these: AfPGMC353∗:ISFP1 1:20; single adduct on C353. As to the method:
as §3

Setting [7] is: 50 µM ISFP1 preincubated 15 min with 5 nM enzyme, DTT 1 mM (Fig. S11G).

≈ marks a conversion by molar mass, not a printed value. Entries after “also recorded” stand apart in the source; their conditions may differ. Like-named read-outs stand apart in the source and are kept apart here.

From publication PMC9168620, “Genetic validation of Aspergillus fumigatus phosphoglucomutase as a viable therapeutic target in invasive aspergillosis” (The Journal of Biological Chemistry, 2022) come the findings set out here.

T1 sequence (Q4WY53 whole entry): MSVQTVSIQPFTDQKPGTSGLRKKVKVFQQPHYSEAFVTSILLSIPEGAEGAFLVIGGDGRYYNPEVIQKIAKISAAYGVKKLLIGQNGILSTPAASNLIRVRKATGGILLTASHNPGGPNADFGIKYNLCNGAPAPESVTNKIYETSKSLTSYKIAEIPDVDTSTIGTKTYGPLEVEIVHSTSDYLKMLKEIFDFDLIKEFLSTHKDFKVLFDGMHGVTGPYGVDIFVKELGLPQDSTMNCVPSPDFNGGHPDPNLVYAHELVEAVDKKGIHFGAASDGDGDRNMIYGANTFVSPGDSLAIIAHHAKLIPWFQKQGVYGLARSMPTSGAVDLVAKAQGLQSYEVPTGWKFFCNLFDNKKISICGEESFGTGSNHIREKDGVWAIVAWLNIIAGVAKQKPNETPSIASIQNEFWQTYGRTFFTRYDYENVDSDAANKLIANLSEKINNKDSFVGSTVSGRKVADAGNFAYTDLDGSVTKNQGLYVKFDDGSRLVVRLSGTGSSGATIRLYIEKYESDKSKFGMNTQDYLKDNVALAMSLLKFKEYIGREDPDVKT
T6 sequence (Q4WY53 whole entry C353V): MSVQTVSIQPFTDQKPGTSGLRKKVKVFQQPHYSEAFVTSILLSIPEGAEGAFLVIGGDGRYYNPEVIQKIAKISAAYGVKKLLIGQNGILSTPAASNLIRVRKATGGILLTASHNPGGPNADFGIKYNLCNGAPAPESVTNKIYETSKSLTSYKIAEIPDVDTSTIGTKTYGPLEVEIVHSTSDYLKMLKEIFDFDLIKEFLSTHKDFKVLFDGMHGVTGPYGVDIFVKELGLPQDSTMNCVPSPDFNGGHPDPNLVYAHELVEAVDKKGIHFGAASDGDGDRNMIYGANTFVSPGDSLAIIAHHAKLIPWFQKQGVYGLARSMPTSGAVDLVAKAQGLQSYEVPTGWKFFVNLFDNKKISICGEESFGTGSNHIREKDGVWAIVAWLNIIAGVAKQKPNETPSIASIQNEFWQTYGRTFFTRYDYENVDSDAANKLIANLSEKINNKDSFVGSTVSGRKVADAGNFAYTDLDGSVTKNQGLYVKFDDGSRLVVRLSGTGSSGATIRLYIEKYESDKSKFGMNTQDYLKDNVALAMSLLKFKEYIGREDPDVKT
T2 sequence (Q4WY53 whole entry C131S/C242S/C364S): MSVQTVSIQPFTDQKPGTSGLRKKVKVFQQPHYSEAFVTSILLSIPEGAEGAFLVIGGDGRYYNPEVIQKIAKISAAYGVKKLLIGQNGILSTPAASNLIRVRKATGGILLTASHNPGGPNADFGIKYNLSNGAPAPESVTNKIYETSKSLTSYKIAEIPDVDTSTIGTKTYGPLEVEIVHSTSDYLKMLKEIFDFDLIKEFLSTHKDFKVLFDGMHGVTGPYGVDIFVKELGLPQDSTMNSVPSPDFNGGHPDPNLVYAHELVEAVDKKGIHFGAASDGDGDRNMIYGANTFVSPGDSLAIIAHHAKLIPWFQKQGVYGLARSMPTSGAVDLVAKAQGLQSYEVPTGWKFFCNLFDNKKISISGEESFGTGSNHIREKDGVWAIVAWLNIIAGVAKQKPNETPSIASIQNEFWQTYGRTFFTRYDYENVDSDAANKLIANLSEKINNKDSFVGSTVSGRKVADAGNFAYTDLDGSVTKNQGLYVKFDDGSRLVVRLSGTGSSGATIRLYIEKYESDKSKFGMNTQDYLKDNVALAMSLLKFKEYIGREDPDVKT

For `O=c1ccsn1-c1cccc(Cl)c1F` [ISFP1], the “Rescue of AfPGM activity by DTT after inhibition” value at AfPGM [1] (setting [7]) was “rescued by the addition of DTT”. Further, the IC50 (as a rule, the concentration needed to halve the response being measured) at AfPGM [1] (WT AfPGM 5 nM, no preincubation, 500 μM Glc-1P) was 2 µM; on AfPGMC353∗ [2], 3 µM; against HsPGM (IC50 HsPGM, HsPGM 5 nM, no preincubation, > values: highest concentration at which the compound can solubilize) it was 80 ± 2 µM; on HsPGM (enzyme preincubated with compound for 15 min (Fig. S11E, F), read-out: IC50 HsPGM after preincubation), 7.5 µM; on CaPGM, 5 µM; against CaPGMC359S, over 400 µM. Also, at HsPGM (setting [7]), the “Rescue of HsPGM activity by DTT after inhibition” value was “could not be rescued by DTT treatment”. Besides, on CaPGMC359S, the “IC50 CaPGM C359S mutant” value was “No inhibition”. Moreover, the “Inhibition of AfPGM C353V mutant” value at AfPGMC353V is reported as “does not inhibit; also recorded: not inhibited”. In the assay on A. fumigatus, the MIC (usually the least concentration at which growth counts as inhibited) was found to be 10 µg/mL (≈ 43.5 µM). Also, on AfPGM [3], the “Binding to AfPGM by BLI” value is on record as “bound to AfPGM in a concentration-dependent manner”. Further, the “Decrease of AfPGM kcat” value on AfPGM [4] (20 μM ISFP1) is reported as 10 fold. At AfPGM [4] (in the presence of ISFP1), the “Change of AfPGM Km” value was “remains at the same level”. Moreover, the “Increase in protein mass after incubation with compound” value at AfPGM [5] and at AfPGMC353∗ [6] was 232 Da throughout.
